Assay results from patent US20130143884A1, “4-[2-[ [5-METHYL-1-(2-NAPHTALENYL)-1H-PYRAZOL-3-YL]OXY]ETHYL] MORPHOLINE SALTS” (priority 2009, published 2013).
Where “and” joins values, the source holds several entries; their conditions need not be identical. Equal values may be shown once. Where a name gives a salt, the structure may show the parent alone. Read-outs that look alike come from different tables or passages of the source.

Legend:
[1] = target: sigma 1 (σ-1) site (Homo sapiens, UniProt Q99720); details: cited from earlier work
[2] = treatment and prevention of chronic and acute pain, particularly neuropathic pain; reported in WO 2006/021462; cited from earlier work
[3] = pKa; format: physicochemical
[4] = target: sigma 2 (σ-2) site (Homo sapiens, UniProt Q5BJF2); details: cited from earlier work
[5] = Solubility of the salts in crystallization screening solvents; format: physicochemical; details: initial screening solvents; for the maleate except ethyl acetate
Method: The product obtained in the initial preparation was solved in the minimum amount of crystallization solvent at its boiling temperature or at a maximum of 75° C. […] The mother liquors were cooled to room temperature and kept for 24 hours.
Initially, a crystallization screening of compound 63 with the ten counterions depicted in table 2 was performed, at a 40 mg scale, in the following ten solvents: acetone, ethyl acetate, chloroform, N,N-dimethylformamide, methanol, ethanol, isopropanol, 2-butanol, acetonitrile and tetrahydrofuran. The procedure started with the preparation of equimolar mixtures, from known concentration methanol dissolutions, of compound 63 and the different acid counterions. The resulting crude, after the methanol evaporation, was crystallized from the hot solvents formerly mentioned. Different crystallization strategies were used depending on the solubility of each acid and compound 63 mixture, and therefore the solids were obtained using different procedures. For some acids, the mixture was not soluble in the hot crystallization solvent, obtaining a slurry solid. In other cases, the solid crystallized during room temperature cooling of the solution, or after several days at 4° C. or at −18° C. Finally, in some crystallization attempts, the solid was obtained after slow evaporation of the solvent at room temperature. […]

[6] = Thermodynamic solubility at pH 7.4; format: physicochemical
Method: General protocol for thermodynamic solubility at pH 7.4 and pH 2 is described below.
A) Thermodynamic Solubility at pH 7.4
Buffer phosphates pH 7.4 was prepared as follows: • A solution 25 mM of Na2HPO4.12H2O (for 1 l of water, weight 8.96 g) was prepared • A solution 25 mM de KH2PO4 (for 1 l of water weight 3.4 g) was prepared. • 812 ml of disodium phosphate solution+182 ml of potassium phosphate solution were mixed and pH checked according was 7.4.
Samples were equilibrated using: • Stirrer Thermomixer Control of Eppendorf a 25° C. y 1250 rpm • pHmeter with combined electrode of pH semimicro
2 mg in an HPLC vial (by duplicate) was weight and 1 ml of buffer was added. The vial was maintained at 25° C., in the stirrer Thermomixer Comfort., during 24 hours. Centrifugation at 4000 rpm followed during 15 min.
The resulting upper layer was collected with a glass pipette and transferred to the HPLC vials. Again centrifuged and the injector programmed at 2.7 mm high.
Sol.A: 2 mg in 5 ml methanol (400 ug/ml)
Sol.B: 1 ml Sol.A to 10 ml with methanol (40 ug/ml)
Sol.C: 5 ml Sol.B to 50 ml with methanol (4 ug/ml)
Sol.D: 4 ml Sol.C to 10 ml with methanol (1.6 ug/ml)
Sol.E: 5 ml Sol.D to 25 ml with methanol (0.32 ug/ml)
10 μl of all prepared solutions were injected, beginning with the more diluted standard. Blanks were also injected, for checking the absence of contamination.
The standard calibration curve was done (see FIG. 29). Consider Y=area y X=μg injected standard
10 μl of problem compound solution were injected, by duplicate and the average peak area (if quantifiable) interpolated in the standard curve (see Tables 9, 10 and 11 and example below).
Chromatographic Conditions • Column: XBridge C18 (or similar) 2.5 μm 4.6×50 mm • Temperature: 35° C. • Mobile phase: ACN/ammonium bicarbonate 10 mM. • Gradient: 0-3.5 min: from 15% ACN to 95% ACN • 3.5-5 min: 95% ACN • 5-6 min: 95 a 15% ACN • 6-8 min: 15% ACN • Flow: 1.5 ml/min • Detection: around the UV absorption maximum

[7] = Pharmacokinetics in rats after single oral administration (plasma, HPLC with fluorescence detection); format: in vivo; details: Wistar Hannover; rat plasma, single oral 25 mg/kg (expressed as compound 63)
Method: The pharmacokinetics of Example 1 in Wistar Hannover rats following a single oral administration of 25 mg/kg (expressed as compound 63) was tested. For this purpose, plasma samples were collected at different time points and analyzed using HPLC (High pressure liquid chromatography) method with fluorescence detection.
Two groups were used in this test. Group 1 received vehicle and Group 2 received Example 1 at 25 mg/kg with an administration volume of 10 mL/kg.
Blood samples were extracted from the retro-orbital zone at the following time points: pre-dose, 15 min, 30 min, 1 h, 1.5 h, 2 h, 3 h, 4 h, 5 h, 6 h, 8 h and 24 h. Blood was then transferred into heparin-containing plastic tubes. Plasma was obtained by centrifugation at approximately 3000 rpm for 10 min at 4° C. These plasma samples were labeled and frozen at a temperature of approximately −65° C. until analysis.
Samples were analyzed by a previously validated analytical method. Briefly, rat plasma samples were thawed at room temperature and centrifuged at 3000 rpm for 10 min at approximately 4° C. 300 μl of plasma samples were placed into vials and spiked with 30 μl of internal standard working solution. The vials were capped and mixed thoroughly. […]
The peaks corresponding to Example 1 and its internal standard were quantified by fluorescence detection at an excitation wavelength of 260 nm and an emission wavelength of 360 nm. […]
The peak plasma concentration values (Cmax) and the time to reach such concentration (tmax) were obtained directly from the experimental data. The elimination constant (kel) was calculated by linear regression of the last phase of the curve (log concentration vs. time). The elimination half-life (t1/2) was determined with the expression t1/2=0.693/kel. The area under the curve of plasma levels vs. time from zero to the last time determined (AUC0-t) was calculated be means of the trapezoidal method. The area under the curve of plasma levels vs time from zero to infinity (AUC0-∞) was calculated with the expression: AUC0-∞=AUC0-t+Clast/kel, where Clast is the plasma concentration at the last time measured.

[8] = Dissolution and absorption profile in vivo; details: compared with its related base
[9] = Descriptive solubility in water and solvents; format: physicochemical

Sequence of sigma 1 (σ-1) site (Q99720 whole entry): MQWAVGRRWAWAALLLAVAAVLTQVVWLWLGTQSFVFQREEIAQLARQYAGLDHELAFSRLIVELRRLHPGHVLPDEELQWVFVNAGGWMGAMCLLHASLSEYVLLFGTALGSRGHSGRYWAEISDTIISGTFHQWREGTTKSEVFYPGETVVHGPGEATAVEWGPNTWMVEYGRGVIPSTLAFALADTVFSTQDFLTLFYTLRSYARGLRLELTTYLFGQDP
Sequence of sigma 2 (σ-2) site (Q5BJF2 whole entry): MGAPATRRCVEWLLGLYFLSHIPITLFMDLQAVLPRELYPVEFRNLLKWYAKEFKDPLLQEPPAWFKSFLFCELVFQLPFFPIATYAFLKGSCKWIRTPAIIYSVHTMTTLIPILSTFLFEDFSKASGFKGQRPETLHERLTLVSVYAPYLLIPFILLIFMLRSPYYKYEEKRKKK

Cc1cc(OCCN2CCOCC2)nn1-c1ccc2ccccc2c1 [compound 63, 4-[2-[[5-methyl-1-(2-naphthalenyl)-1H-pyrazol-3-yl]oxy]ethyl]morpholine]
Sigma-1 receptor activity ([1]; reported in WO 2006/021462): highly selective sigma-1 (σ-1) receptor antagonist
Analgesic activity [2]: strong analgesic activity
pKa [3]: 6.7

SKF 10047 [reference compound]
Affinity for the sigma 1 (σ-1) site [1]: nanomolar
Affinity for the sigma 2 (σ-2) site [4]: micromolar

CCS(=O)(=O)O.Cc1cc(OCCN2CCOCC2)nn1-c1ccc2ccccc2c1 [ethanesulfonate salt]
Solubility in all the solvents assayed (first set of ten solvents) [5]: > 200000 µg/mL

Cc1cc(OCCN2CCOCC2)nn1-c1ccc2ccccc2c1 [Example 1, 4-[2-[[5-methyl-1-(2-naphthalenyl)-1H-pyrazol-3-yl]oxy]ethyl]morpholine hydrochloride]
solubility thermodynamic at 24 h ([6]; aqueous buffer, thermodynamic from solid, pH=7.4, phosphate buffer 50 mM, 25° C., 24 hours): 227 µg/mL
Conc. (single injections) ([6]; pH 7.4, duplicate samples, duplicate injections, hydrochloride): 225.5 µg/mL and 229.0 µg/mL and 229.3 µg/mL and 225.3 µg/mL
Conc. Mean ([6]; pH 7.4, mean of 4 injections): 227.262 µg/mL
AUC(0-inf) [7]: 1250 ng·h/mL
AUC(0-t) [7]: 1220 ng·h/mL
Cmax [7]: 1.15 µg/mL
Dissolution and absorption profile in vivo [8]: better dissolution and absorption profile in vivo than its related base
pKa ([3]; read-out: pKa): 6.73
Solubility in 1N hydrochloric acid ([9]; 1N hydrochloric acid): freely soluble
Solubility in 1N sodium hydroxide ([9]; 1N sodium hydroxide): practically insoluble
Solubility in acetone ([9]; acetone): slightly soluble
Solubility in dimethyl sulphoxide ([9]; dimethyl sulphoxide): freely soluble
Solubility in ethanol ([9]; ethanol): sparingly soluble
Solubility in ethyl acetate ([9]; ethyl acetate): practically insoluble
Solubility in methanol ([9]; methanol): freely soluble
Solubility in water ([9]; water): very soluble
